From patent publication US9527869B2, “Indolizine derivatives as phoshoinositide 3-kinases inhibitors” (CHIESI FARMACEUTICI S.P.A., priority 2014, dated 2016)

How the values were obtained:
Format in all cases: biochemical
PI3Kα = biological target: T1, PI3Kα (Homo sapiens, UniProt P42336); experiment: In vitro determination of the PI3K enzyme inhibitory activity in the cell free assay (ADP-Glo Kinase Assay), PI3Kα; details: ATP 50 μM, read-out: PI3K alpha inhibition
T1 construct: purchased Millipore Ltd (Billerica, Mass.)
Summary of the method: (§1)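 Human recombinant PI3K isoforms with PI/PS lipid substrates (50 μM in 2× buffer, Tris pH 7.5, DTT) were run 60 min at room temperature. Final ATP was 50 μM for α, 100 μM for β, 30 μM for γ and 80 μM for δ. ADP formation was read by ADP-Glo luminescence, and IC50 came from a four-parameter logistic fit.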

PI3Kβ = biological target: T2, PI3Kβ (Homo sapiens, UniProt P42338); experiment: In vitro determination of the PI3K enzyme inhibitory activity in the cell free assay (ADP-Glo Kinase Assay), PI3Kβ; details: ATP 100 μM, read-out: PI3K beta inhibition
T2 construct: purchased Millipore Ltd (Billerica, Mass.)
Summary of the method: as §1

PI3Kγ = biological target: T3, PI3Kγ (Homo sapiens, UniProt P48736); experiment: In vitro determination of the PI3K enzyme inhibitory activity in the cell free assay (ADP-Glo Kinase Assay), PI3Kγ; details: ATP 30 μM, read-out: PI3K gamma inhibition
T3 construct: purchased Millipore Ltd (Billerica, Mass.)
Summary of the method: as §1

PI3Kδ = biological target: T4, PI3Kδ (Homo sapiens, UniProt O00329); experiment: In vitro determination of the PI3K enzyme inhibitory activity in the cell free assay (ADP-Glo Kinase Assay), PI3Kδ; details: ATP 80 μM, read-out: PI3K delta inhibition
T4 construct: purchased Millipore Ltd (Billerica, Mass.)
Summary of the method: as §1

T4 sequence (O00329 whole entry): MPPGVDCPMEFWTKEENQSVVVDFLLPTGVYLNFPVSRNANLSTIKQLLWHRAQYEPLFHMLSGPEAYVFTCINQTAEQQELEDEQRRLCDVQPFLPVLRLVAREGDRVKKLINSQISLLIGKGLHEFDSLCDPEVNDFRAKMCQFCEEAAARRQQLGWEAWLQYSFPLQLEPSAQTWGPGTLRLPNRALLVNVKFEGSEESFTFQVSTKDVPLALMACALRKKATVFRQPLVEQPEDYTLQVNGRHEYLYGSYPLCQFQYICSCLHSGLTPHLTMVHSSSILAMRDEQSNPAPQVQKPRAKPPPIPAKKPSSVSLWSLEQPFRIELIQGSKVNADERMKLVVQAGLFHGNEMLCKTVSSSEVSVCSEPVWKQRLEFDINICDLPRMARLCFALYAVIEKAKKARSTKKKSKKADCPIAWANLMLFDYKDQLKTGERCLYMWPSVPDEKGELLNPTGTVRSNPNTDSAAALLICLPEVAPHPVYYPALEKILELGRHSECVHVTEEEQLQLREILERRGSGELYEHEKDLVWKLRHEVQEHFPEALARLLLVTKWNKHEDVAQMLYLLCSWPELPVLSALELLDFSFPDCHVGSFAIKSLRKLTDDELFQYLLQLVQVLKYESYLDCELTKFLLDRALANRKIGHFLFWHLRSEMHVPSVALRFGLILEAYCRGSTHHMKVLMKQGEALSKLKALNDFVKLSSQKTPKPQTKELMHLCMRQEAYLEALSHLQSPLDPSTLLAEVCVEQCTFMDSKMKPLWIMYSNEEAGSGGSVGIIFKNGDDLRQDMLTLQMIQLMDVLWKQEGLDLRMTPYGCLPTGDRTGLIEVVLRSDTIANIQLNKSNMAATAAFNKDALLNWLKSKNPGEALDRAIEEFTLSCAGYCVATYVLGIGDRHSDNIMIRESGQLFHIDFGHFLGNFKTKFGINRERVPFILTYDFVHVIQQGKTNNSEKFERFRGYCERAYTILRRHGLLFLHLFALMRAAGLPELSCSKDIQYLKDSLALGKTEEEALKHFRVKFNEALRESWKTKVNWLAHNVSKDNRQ
T4 sequence (P27986 whole entry partner): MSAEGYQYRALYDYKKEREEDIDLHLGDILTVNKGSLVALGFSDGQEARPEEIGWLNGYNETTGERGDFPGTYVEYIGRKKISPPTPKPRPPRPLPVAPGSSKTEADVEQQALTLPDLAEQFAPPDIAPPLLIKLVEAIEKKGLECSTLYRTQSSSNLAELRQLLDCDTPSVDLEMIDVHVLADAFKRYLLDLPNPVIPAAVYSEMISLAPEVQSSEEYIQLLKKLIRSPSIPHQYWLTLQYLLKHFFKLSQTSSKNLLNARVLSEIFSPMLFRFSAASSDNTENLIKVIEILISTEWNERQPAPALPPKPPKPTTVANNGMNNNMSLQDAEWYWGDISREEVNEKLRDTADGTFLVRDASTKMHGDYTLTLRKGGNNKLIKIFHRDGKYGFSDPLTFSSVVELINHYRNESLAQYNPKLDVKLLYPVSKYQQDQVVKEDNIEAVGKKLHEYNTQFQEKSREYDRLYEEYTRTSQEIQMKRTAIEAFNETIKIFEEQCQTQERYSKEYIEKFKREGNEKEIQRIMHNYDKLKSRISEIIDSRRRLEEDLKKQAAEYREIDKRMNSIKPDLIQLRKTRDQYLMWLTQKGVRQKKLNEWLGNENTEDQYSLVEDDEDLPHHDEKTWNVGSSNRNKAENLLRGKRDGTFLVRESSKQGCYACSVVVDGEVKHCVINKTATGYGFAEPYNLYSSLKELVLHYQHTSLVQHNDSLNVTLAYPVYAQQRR
T1 sequence (P42336 whole entry): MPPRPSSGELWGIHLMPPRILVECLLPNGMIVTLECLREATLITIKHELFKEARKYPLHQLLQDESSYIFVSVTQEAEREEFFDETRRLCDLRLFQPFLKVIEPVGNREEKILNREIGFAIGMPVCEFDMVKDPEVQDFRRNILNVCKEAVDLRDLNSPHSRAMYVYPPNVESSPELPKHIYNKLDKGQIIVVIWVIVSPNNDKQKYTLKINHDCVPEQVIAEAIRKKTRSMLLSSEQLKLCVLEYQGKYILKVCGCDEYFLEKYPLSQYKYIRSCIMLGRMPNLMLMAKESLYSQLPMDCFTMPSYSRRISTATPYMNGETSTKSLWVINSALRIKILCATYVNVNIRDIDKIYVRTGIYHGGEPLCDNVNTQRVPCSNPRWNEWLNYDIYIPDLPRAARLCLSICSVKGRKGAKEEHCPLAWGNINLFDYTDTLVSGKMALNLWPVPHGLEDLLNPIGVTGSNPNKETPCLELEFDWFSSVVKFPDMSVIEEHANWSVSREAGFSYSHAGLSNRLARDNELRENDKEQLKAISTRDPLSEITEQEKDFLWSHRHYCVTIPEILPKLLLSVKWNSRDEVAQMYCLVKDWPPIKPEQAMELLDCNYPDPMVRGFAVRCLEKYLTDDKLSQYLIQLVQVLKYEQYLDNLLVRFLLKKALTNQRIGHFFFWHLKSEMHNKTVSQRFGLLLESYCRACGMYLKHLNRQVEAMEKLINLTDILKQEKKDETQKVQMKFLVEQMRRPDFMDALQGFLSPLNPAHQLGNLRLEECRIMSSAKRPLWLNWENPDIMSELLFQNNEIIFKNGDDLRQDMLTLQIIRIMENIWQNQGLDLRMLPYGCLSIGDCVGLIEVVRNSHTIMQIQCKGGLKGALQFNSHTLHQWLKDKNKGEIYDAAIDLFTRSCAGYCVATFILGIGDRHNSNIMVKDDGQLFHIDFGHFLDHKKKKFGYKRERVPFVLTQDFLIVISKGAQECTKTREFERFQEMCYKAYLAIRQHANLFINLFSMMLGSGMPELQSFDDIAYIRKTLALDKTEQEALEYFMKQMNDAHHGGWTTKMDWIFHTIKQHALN
T1 sequence (P27986 whole entry partner): as the sequence (P27986 whole entry partner) above
T3 sequence (P48736 whole entry): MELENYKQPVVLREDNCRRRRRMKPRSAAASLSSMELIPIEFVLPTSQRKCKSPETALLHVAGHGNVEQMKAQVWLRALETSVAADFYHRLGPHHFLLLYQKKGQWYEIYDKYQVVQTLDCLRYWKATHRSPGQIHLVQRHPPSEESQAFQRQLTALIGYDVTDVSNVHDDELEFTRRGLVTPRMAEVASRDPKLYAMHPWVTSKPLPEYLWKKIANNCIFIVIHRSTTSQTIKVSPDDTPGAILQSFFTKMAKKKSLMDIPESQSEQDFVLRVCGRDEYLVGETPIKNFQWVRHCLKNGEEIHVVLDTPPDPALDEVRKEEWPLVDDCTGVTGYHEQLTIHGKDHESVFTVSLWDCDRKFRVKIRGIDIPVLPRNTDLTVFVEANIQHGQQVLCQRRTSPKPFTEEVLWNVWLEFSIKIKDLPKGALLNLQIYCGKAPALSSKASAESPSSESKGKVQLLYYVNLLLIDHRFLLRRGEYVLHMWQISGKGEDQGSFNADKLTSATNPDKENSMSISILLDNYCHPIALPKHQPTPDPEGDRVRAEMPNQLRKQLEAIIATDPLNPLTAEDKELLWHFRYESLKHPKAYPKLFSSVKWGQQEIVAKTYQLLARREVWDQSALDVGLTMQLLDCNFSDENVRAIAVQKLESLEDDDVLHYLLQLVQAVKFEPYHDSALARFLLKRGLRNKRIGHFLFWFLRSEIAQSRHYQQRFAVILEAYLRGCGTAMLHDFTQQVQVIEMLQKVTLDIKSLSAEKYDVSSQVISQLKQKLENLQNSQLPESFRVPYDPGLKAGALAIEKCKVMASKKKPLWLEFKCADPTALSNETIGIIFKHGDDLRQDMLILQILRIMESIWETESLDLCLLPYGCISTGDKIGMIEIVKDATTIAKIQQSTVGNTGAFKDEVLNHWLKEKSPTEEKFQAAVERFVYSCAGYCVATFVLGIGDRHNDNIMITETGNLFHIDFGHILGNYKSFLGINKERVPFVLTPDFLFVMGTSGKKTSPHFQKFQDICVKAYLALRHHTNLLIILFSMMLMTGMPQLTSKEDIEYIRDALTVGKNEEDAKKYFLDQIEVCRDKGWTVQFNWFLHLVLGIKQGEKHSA
T2 sequence (P42338 whole entry): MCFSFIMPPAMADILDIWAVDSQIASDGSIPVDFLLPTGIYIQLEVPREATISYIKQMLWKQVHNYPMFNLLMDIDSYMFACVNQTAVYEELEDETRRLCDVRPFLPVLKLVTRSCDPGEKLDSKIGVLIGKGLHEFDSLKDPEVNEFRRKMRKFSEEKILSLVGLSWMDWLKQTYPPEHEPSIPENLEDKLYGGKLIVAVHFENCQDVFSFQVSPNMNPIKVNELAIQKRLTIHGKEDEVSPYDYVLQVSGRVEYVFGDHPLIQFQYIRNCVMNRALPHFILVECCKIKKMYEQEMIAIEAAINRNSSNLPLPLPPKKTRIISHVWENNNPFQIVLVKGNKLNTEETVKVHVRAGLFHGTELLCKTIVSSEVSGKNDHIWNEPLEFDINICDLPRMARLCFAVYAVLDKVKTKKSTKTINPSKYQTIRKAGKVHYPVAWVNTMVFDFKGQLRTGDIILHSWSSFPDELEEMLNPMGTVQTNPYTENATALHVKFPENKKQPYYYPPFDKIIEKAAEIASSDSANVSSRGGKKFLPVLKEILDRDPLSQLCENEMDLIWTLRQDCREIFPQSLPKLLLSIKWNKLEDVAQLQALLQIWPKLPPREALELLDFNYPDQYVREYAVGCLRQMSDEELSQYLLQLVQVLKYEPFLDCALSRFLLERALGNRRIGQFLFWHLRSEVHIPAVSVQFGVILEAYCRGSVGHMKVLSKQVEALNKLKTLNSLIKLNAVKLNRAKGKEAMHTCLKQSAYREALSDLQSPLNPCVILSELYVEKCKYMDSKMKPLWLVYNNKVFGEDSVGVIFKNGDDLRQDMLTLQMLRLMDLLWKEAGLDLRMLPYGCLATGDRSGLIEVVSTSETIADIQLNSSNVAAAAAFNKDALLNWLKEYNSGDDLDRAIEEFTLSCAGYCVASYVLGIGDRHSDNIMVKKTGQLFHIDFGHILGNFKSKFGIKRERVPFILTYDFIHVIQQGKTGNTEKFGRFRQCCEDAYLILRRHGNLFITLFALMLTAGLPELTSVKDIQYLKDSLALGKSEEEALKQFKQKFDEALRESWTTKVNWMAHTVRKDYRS
T2 sequence (P27986 whole entry partner): as the sequence (P27986 whole entry partner) above

Compound	IC50 (PI3Kα)	IC50 (PI3Kβ)	IC50 (PI3Kγ)	IC50 (PI3Kδ)
CC(c1cc2ccccn2c1-c1ccccn1)n1nc(-c2cccc(NS(C)(=O)=O)c2)c2c(N)ncnc21 (stereo not shown) [Example 67, N-[3-(4-amino-1-{1-[3-(pyridin-2-yl)indolizin-2-yl]ethyl}-1H-pyrazolo[3,4-d]pyrimidin-3-yl)phenyl]methanesulfonamide]	> 1 µM	> 1 µM	> 1 µM	0.01 to 1 µM
CC(c1cc2ccccn2c1-c1ccccn1)n1nc(-c2cccnc2)c2c(N)ncnc21 (stereo not shown) [Example 68, 1-{1-[3-(pyridin-2-yl)indolizin-2-yl]ethyl}-3-(pyridin-3-yl)-1H-pyrazolo[3,4-d]pyrimidin-4-amine]	> 1 µM	> 1 µM	> 1 µM	0.01 to 1 µM
CC(c1cc2ccccn2c1-c1ccccn1)n1nc(-c2cncc(O)c2)c2c(N)ncnc21 (stereo not shown) [Example 69, 5-(4-amino-1-{1-[3-(pyridin-2-yl)indolizin-2-yl]ethyl}-1H-pyrazolo[3,4-d]pyrimidin-3-yl)pyridin-3-ol]	> 1 µM	0.01 to 1 µM	0.01 to 1 µM	< 0.01 µM
CC(c1cc2ccccn2c1-c1ccccn1)n1nc(-c2ccc(O)c(F)c2)c2c(N)ncnc21 (stereo not shown) [Example 70, 4-(4-amino-1-{1-[3-(pyridin-2-yl)indolizin-2-yl]ethyl}-1H-pyrazolo[3,4-d]pyrimidin-3-yl)-2-fluorophenol]	> 1 µM	> 1 µM	0.01 to 1 µM	0.01 to 1 µM
CC(c1cc2ccccn2c1-c1ccccn1)n1nc(-c2ccc(F)c(O)c2)c2c(N)ncnc21 (stereo not shown) [Example 71, 5-(4-amino-1-{1-[3-(pyridin-2-yl)indolizin-2-yl]ethyl}-1H-pyrazolo[3,4-d]pyrimidin-3-yl)-2-fluorophenol]	> 1 µM	> 1 µM	0.01 to 1 µM	0.01 to 1 µM
CC(c1cc2ccccn2c1-c1ccccn1)n1nc(-c2cc(O)cc(Cl)c2)c2c(N)ncnc21 (stereo not shown) [Example 72, 3-(4-amino-1-{1-[3-(pyridin-2-yl)indolizin-2-yl]ethyl}-1H-pyrazolo[3,4-d]pyrimidin-3-yl)-5-chlorophenol]	> 1 µM	0.01 to 1 µM	0.01 to 1 µM	< 0.01 µM
CC(c1cc2ccccn2c1-c1ccccn1)n1nc(-c2cccc(S(N)(=O)=O)c2)c2c(N)ncnc21 (stereo not shown) [Example 73, 3-(4-amino-1-{1-[3-(pyridin-2-yl)indolizin-2-yl]ethyl}-1H-pyrazolo[3,4-d]pyrimidin-3-yl)benzene-1-sulfonamide]	> 1 µM	> 1 µM	> 1 µM	0.01 to 1 µM
CC(c1cc2ccccn2c1-c1ccccn1)n1nc(-c2cc(F)cc(NS(C)(=O)=O)c2)c2c(N)ncnc21 (stereo not shown) [Example 74, N-[3-(4-amino-1-{1-[3-(pyridin-2-yl)indolizin-2-yl]ethyl}-1H-pyrazolo[3,4-d]pyrimidin-3-yl)-5-fluorophenyl]methanesulfonamide]	> 1 µM	> 1 µM	> 1 µM	0.01 to 1 µM
CC(c1cc2ccccn2c1-c1ccccn1)n1nc(-c2cc(F)cc(S(N)(=O)=O)c2)c2c(N)ncnc21 (stereo not shown) [Example 75, 3-(4-amino-1-{1-[3-(pyridin-2-yl)indolizin-2-yl]ethyl}-1H-pyrazolo[3,4-d]pyrimidin-3-yl)-5-fluorobenzene-1-sulfonamide]	> 1 µM	> 1 µM	> 1 µM	> 1 µM
CC(c1cc2ccccn2c1-c1ccccn1)n1nc(-c2cc(N)cc(F)c2)c2c(N)ncnc21 (stereo not shown) [Example 76, 3-(3-amino-5-fluorophenyl)-1-{1-[3-(pyridin-2-yl)indolizin-2-yl]ethyl}-1H-pyrazolo[3,4-d]pyrimidin-4-amine]	> 1 µM	0.01 to 1 µM	> 1 µM	0.01 to 1 µM
CC(c1cc2ccccn2c1-c1ccccn1)n1nc(-c2cc(O)cc(C#N)c2)c2c(N)ncnc21 (stereo not shown) [Example 77, 3-(4-amino-1-{1-[3-(pyridin-2-yl)indolizin-2-yl]ethyl}-1H-pyrazolo[3,4-d]pyrimidin-3-yl)-5-hydroxybenzonitrile]	> 1 µM	0.01 to 1 µM	0.01 to 1 µM	< 0.01 µM
CC(c1cc2ccccn2c1-c1ccccn1)n1nc(-c2cc(F)cc(-c3nnn[nH]3)c2)c2c(N)ncnc21 (stereo not shown) [Example 78, 3-[3-fluoro-5-(1H-1,2,3,4-tetrazol-5-yl)phenyl]-1-{1-[3-(pyridin-2-yl)indolizin-2-yl]ethyl}-1H-pyrazolo[3,4-d]pyrimidin-4-amine:ammonia 2:1]	> 1 µM	> 1 µM	> 1 µM	> 1 µM
CC(c1cc2ccccn2c1-c1ccccc1)n1nc(-c2cc(O)cc(F)c2)c2c(N)ncnc21 (stereo not shown) [Example 85, 3-{4-amino-1-[1-(3-phenylindolizin-2-yl)ethyl]-1H-pyrazolo[3,4-d]pyrimidin-3-yl}-5-fluorophenol]	> 1 µM	0.01 to 1 µM	> 1 µM	0.01 to 1 µM
CC(c1cc2ccccn2c1-c1ccccc1F)n1nc(-c2cc(O)cc(F)c2)c2c(N)ncnc21 (stereo not shown) [Example 86, 3-(4-amino-1-{1-[3-(2-fluorophenyl)indolizin-2-yl]ethyl}-1H-pyrazolo[3,4-d]pyrimidin-3-yl)-5-fluoro-phenol]	> 1 µM	> 1 µM	0.01 to 1 µM	0.01 to 1 µM
Cc1ccc2cc(C(C)n3nc(-c4cc(O)cc(F)c4)c4c(N)ncnc43)c(-c3ccccn3)n2c1 (stereo not shown) [Example 87, 3-(4-amino-1-{1-[6-methyl-3-(pyridin-2-yl)indolizin-2-yl]ethyl}-1H-pyrazolo[3,4-d]pyrimidin-3-yl)-5-fluorophenol]	> 1 µM	0.01 to 1 µM	> 1 µM	0.01 to 1 µM
CC(c1cc2ccc(C(F)(F)F)cn2c1-c1ccccn1)n1nc(-c2cc(O)cc(F)c2)c2c(N)ncnc21 (stereo not shown) [Example 88, 3-(4-amino-1-{1-[3-(pyridin-2-yl)-6-(trifluoromethyl)indolizin-2-yl]ethyl}-1H-pyrazolo[3,4-d]pyrimidin-3-yl)-5-fluorophenol]	> 1 µM	> 1 µM	> 1 µM	0.01 to 1 µM
Cc1c(C(C)n2nc(-c3cc(O)cc(F)c3)c3c(N)ncnc32)c(-c2ccccn2)n2ccccc12 (stereo not shown) [Example 89, 3-(4-amino-1-{1-[1-methyl-3-(pyridin-2-yl)indolizin-2-yl]ethyl}-1H-pyrazolo[3,4-d]pyrimidin-3-yl)-5-fluorophenol]	0.01 to 1 µM	0.01 to 1 µM	0.01 to 1 µM	0.01 to 1 µM
CC(c1cc2ccccn2c1-c1ccc(CN2CCOCC2)s1)n1nc(-c2cc(O)cc(F)c2)c2c(N)ncnc21 (stereo not shown) [Example 90, 3-[4-amino-1-(1-{3-[5-(morpholin-4-ylmethyl)thiophen-2-yl]indolizin-2-yl}ethyl)-1H-pyrazolo[3,4-d]pyrimidin-3-yl]-5-fluorophenol]	0.01 to 1 µM	0.01 to 1 µM	0.01 to 1 µM	< 0.01 µM
CC(c1cc2ccccn2c1-c1ccc(CN2CCOCC2)cc1)n1nc(-c2cc(O)cc(F)c2)c2c(N)ncnc21 (stereo not shown) [Example 91, 3-[4-amino-1-(1-{3-[4-(morpholin-4-ylmethyl)phenyl]indolizin-2-yl}ethyl)-1H-pyrazolo[3,4-d]pyrimidin-3-yl]-5-fluorophenol]	> 1 µM	> 1 µM	> 1 µM	0.01 to 1 µM
CC(c1cc2ccccn2c1-c1ccc(CN(C)C)cc1)n1nc(-c2cc(O)cc(F)c2)c2c(N)ncnc21 (stereo not shown) [Example 92, 3-{4-amino-1-[1-(3-{4-[(dimethylamino)methyl]phenyl}indolizin-2-yl)ethyl]-1H-pyrazolo[3,4-d]pyrimidin-3-yl}-5-fluorophenol]	> 1 µM	0.01 to 1 µM	> 1 µM	0.01 to 1 µM
CC(c1cc2ccccn2c1-c1cncs1)n1nc(-c2cc(O)cc(F)c2)c2c(N)ncnc21 (stereo not shown) [Example 94, 3-(4-amino-1-{1-[3-(1,3-thiazol-5-yl)indolizin-2-yl]ethyl}-1H-pyrazolo[3,4-d]pyrimidin-3-yl)-5-fluorophenol]	0.01 to 1 µM	0.01 to 1 µM	0.01 to 1 µM	< 0.01 µM
CC(c1cc2ccccn2c1N1CCCC1=O)n1nc(-c2cc(O)cc(F)c2)c2c(N)ncnc21 (stereo not shown) [Example 95, 1-(2-{1-[4-amino-3-(3-fluoro-5-hydroxyphenyl)-1H-pyrazolo[3,4-d]pyrimidin-1-yl]ethyl}indolizin-3-yl)pyrrolidin-2-one]	0.01 to 1 µM	0.01 to 1 µM	0.01 to 1 µM	< 0.01 µM
CC(c1cc2cccnn2c1-c1ccccn1)n1nc(-c2cc(O)cc(F)c2)c2c(N)ncnc21 (stereo not shown) [Example 96, 3-(4-amino-1-{1-[7-(pyridin-2-yl)pyrrolo[1,2-b]pyridazin-6-yl]ethyl}-1H-pyrazolo[3,4-d]pyrimidin-3-yl)-5-fluorophenol]	> 1 µM	0.01 to 1 µM	> 1 µM	< 0.01 µM
Nc1ncnc2c1c(-c1cc(O)cc(F)c1)nn2Cc1cc2ccccn2c1-c1ccccn1 [Example 97, 3-(4-amino-1-{[3-(pyridin-2-yl)indolizin-2-yl]methyl}-1H-pyrazolo[3,4-d]pyrimidin-3-yl)-5-fluorophenol]	0.01 to 1 µM	0.01 to 1 µM	0.01 to 1 µM	< 0.01 µM
Nc1ncnc2c1c(-c1cc(O)cc(F)c1)nn2Cc1cc2ccccn2c1-c1cccnc1 [Example 98, 3-(4-amino-1-{[3-(pyridin-3-yl)indolizin-2-yl]methyl}-1H-pyrazolo[3,4-d]pyrimidin-3-yl)-5-fluorophenol]	0.01 to 1 µM	0.01 to 1 µM	0.01 to 1 µM	0.01 to 1 µM
